Results on 27 compounds are retold here after US20240140931A1, “TRICYCLIC COMPOUNDS AND USES THEREOF” (HUTCHMED LIMITED, priority 2021, published 2024).

The target of assay [1] is Human full-length SHP2 recombinant protein (Homo sapiens (Human), UniProt Q06124). Nature of the assay: Assay of full-length SHP2 phosphatase activity. The assay is classed as biochemical. The settings on record: DiFMUP substrate, with activating peptide. The protocol: Example 2 Assay of Full-Length SHP2 Phosphatase Activity
Chain of Human full-length SHP2 recombinant protein (Q06124 whole entry): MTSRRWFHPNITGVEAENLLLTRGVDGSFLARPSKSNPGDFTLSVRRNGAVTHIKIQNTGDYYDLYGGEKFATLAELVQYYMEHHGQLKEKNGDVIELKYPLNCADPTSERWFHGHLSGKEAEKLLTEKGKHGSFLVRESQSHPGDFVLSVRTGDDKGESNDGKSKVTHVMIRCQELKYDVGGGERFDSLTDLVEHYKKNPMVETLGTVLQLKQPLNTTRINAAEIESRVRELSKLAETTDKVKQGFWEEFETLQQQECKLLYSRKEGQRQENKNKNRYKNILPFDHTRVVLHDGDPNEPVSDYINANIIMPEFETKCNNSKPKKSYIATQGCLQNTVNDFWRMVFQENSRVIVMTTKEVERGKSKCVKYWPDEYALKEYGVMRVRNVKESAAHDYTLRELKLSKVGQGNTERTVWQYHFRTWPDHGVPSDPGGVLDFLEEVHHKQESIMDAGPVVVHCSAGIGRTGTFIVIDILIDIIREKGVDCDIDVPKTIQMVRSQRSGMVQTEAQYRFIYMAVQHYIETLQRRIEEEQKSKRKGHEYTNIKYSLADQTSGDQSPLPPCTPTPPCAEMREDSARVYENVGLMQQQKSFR
1. Reagents and Materials • Human full-length SHP2 recombinant protein: BPS Bioscience, Cat #79018; • SHP2 substrate DiFMUP (1 mM): BPS Bioscience, Cat #79769; • SHP2 activating peptide (100 μM): BPS Bioscience, Cat #79319-2; • DTT: Merck, Cat #DTT-RO; • 384-well plate: Corning, Cat #3575; • 96-well plate: Thermo Fisher Scientific, Cat #249952; • Instrument: EnVision 2104, PerkinElmer.
2. Preparation of Reaction Solutions
The test compound was dissolved in DMSO and diluted with DMSO to 100.0 μM, and the compound was further 3-fold diluted with DMSO to: 100.00, 33.33, 11.11, 3.70, 1.23, 0.41, 0.14 and 0.05 μM.
3. Experimental Steps • To the corresponding wells of the 384-well plate was added 2.5 μL of 4× test compound or 2.5 μL of 4% DMSO solution, and centrifugation was carried out at 1000 rpm for 30 seconds. • To the test compound well and positive control well was added 2.5 μL of 4× mixed solution of SHP2 enzyme/activating peptide while to the negative control well was added 2.5 μL of 1× enzymatic reaction buffer; centrifugation was carried out at 1000 rpm for 30 seconds and incubation was carried out at room temperature for 30 minutes. • To each well was added 5 μL of 2×DiFMUP substrate to initiate the enzymatic reaction, then the plate was transiently oscillated and centrifuged at 1000 rpm for 30 seconds, and the 384-well plate was sealed with a sealing membrane and incubated at 25° C. on a low-speed shaker (100 rpm) in the dark for 60 minutes. • The fluorescence value (relative fluorescence units, RFU) of each well was detected on EnVision2104 (excitation: 355 nm, emission: 460 nm).
wherein • the RFU of compound well refers to the fluorescence reading at 460 nm of the well containing the test compounds; • the RFU of negative control well refers to the fluorescence reading at 460 nm of the background well containing 1% DMSO and the enzymatic reaction buffer; • the RFU of positive control well refers to the fluorescence reading at 460 nm of the well containing 1% DMSO and the mixed solution of SHP2 enzyme/activating peptide.
(§1) IC50 values were calculated following formula 205: y=A+((B−A)/(1+((C/X)^D))), by using the XL-Fit 5.0 software.

Assay [2] relates to pERK1/2 (Thr202/Tyr204) in Miapaca2 cells. Nature of the assay: Assay of intracellular pERK1/2 (Thr202/Tyr204) phosphorylation. The settings on record: pERK1/2 (Thr202/Tyr204) HTRF. The class given is cell-based. The protocol: Example 3 Assay of Intracellular pERK1/2 (Thr202/Tyr204) Phosphorylation
1. Reagents and Materials • pERK1/2 (Thr202/Tyr204) HTRF kit: Cisbio, Cat #64ERKPEH; • Cell line: Miapaca2, ATCC, CRL-1420; • OptiPlate™-384-well plate: PerkinElmer, Cat #6007299; • 96-well plate: Corning, Cat #353072; • Instrument: EnVision2104, PerkinElmer.
2. Preparation of Reaction Solutions • The test compound was dissolved in DMSO and diluted with DMSO to 600.0 μM, and the compound was further 3-fold diluted with DMSO to: 600.0, 200.0, 66.7, 22.2, 7.4, 2.5, 0.82 and 0.27 μM. Then 10 μL of the compound at different dilution concentrations was added to 190 μL of a DMEM medium to prepare a 10× test compound, wherein DMSO was at the concentration of 5% (DMSO was at the final concentration of 0.5%). • 1× cell lysis buffer: 4× cell lysis stock solution (provided by the kit) was diluted 4-fold with deionized water, and then 1% 100× blocking stock solution (provided by the kit) was added thereto. • pERK1/2 detection solution (prepared just before use): the pERK1/2 d2 antibody (provided by the kit) and pERK1/2 Cryptate antibody (provided by the kit) were diluted with the detection solution (provided by the kit) at a ratio of 1:1:38.
3. Experimental Steps • Miapaca2 cells were inoculated into a 96-well plate at a density of 10000 cells/well at 90 μL/well and cultured in a cell incubator at 5% CO2 and 37° C. overnight. • 10 μL of 10× test compound was added to the 90 μL cell culture 96-well plate; to the cell positive control well was added 10 μL of 5% DMSO culture solution; and the plate was cultured in a cell incubator at 5% CO2 and 37° C. for 2 hours. • The medium in the 96-well plate was removed; 50 μL of 1× cell lysis buffer was added to each well; the plate was placed in a microplate shaker; and lysis under shaking was carried out at 900 rpm at room temperature for 1 hour. • 16 μL of the lysis buffer in the 96-well plate was taken and transferred to a 384-well plate, and centrifugation was carried out at 1000 rpm for 30 seconds; then 4 μL of pERK1/2 detection solution was added to each well and centrifugation was carried out at 1000 rpm for 30 seconds; and the 384-well plate was sealed with a sealing membrane and incubated at 25° C. on a low-speed shaker (100 rpm) in the dark for 2 hours. • The fluorescence value (relative fluorescence units, RFU) of each well was detected on EnVision2104 (emission 1: 665 nm, emission 2: 615 nm).
wherein • the fluorescence ratio of compound well refers to the fluorescence ratio of the well containing the test compounds; • the fluorescence ratio of negative control well refers to the fluorescence ratio of the background containing the cell lysis buffer and no Miapaca2 cells; • the fluorescence ratio of positive control well refers to the fluorescence ratio of the well containing 0.5% DMSO and Miapaca2 cells.
as §1
(In general: In TR-FRET formats the signal depends on donor and acceptor labels being close together.)

One may read the IC50 as the midpoint of a concentration-inhibition curve. Consider `CNC(=O)C#Cc1cc2c(cc1F)CC1(CCN(c3nc(N)c(Sc4ccnc(N)c4Cl)nc3Cl)CC1)[C@@H]2N` [Compound 223], for which the IC50 in assay [1] was determined as 4 nM; in assay [2] (Homo sapiens, MIA PaCa-2, 2 h), 23 nM.

On to `C#Cc1ccc2c(c1)[C@@H](N)C1(CCN(c3cc(=O)n(-c4cccc(C(F)(F)F)c4Cl)c(C)n3)CC1)C2` (atropisomer, axis not shown) [Compound 118], for which the IC50 came to 3 nM in assay [1] and 40 nM in assay [2] (2 hours).

Consider `C#Cc1ccc2c(c1)[C@@H](N)C1(CCN(c3cc(=O)n(-c4ccccc4SC)c(C)n3)CC1)C2` [Compound 133], for which the IC50 in assay [1] was found to be 29 nM; in assay [2] (Homo sapiens, MIA PaCa-2, 2 h) it was 147 nM.

As to `Cc1nc(N2CCC3(CC2)Cc2ccc(C#CCN(C)C)cc2[C@H]3N)cc(=O)n1-c1cc(Cl)ccc1Cl` [Compound 84], the IC50 was 67 nM in assay [1] and more than 1000 nM in assay [2] (Homo sapiens, MIA PaCa-2, 2 h).

Regarding `COCC#Cc1ccc2c(c1)[C@@H](N)C1(CCN(c3cc(=O)n(-c4ccc(C#N)c(O)c4F)c(C)n3)CC1)C2` [Compound 186], the IC50 was 42 nM in assay [1] and more than 1000 nM in assay [2] (Homo sapiens, MIA PaCa-2, 2 h).

In the case of `C#Cc1ccc2c(c1)CC1(CCN(c3ncc(Sc4ccnc(N)c4Cl)c4nccn34)CC1)[C@@H]2N` [Compound 1, (S)-1′-(8-((2-amino-3-chloropyridin-4-yl)thio)imidazo[1,2-c]pyrimidin-5-yl)-5-ethynyl-1,3-dihydrospiro[indene-2,4′-piperidin]-1-amine], the IC50 in assay [1] came out at 2 nM; in assay [2] (Homo sapiens, MIA PaCa-2, 2 h), 18 nM.

For `C#Cc1ccc2c(c1)[C@@H](N)C1(CCN(c3cc(=O)n(-c4ccc(F)c(F)c4)c(C)n3)CC1)C2` [Compound 15], the IC50 was determined as 8 nM in assay [1] and 87 nM in assay [2] (Homo sapiens, MIA PaCa-2, 2 h).

Consider `CNCC#Cc1ccc2c(c1)[C@@H](N)C1(CCN(c3cc(=O)n(-c4cccc(Cl)c4Cl)c(C)n3)CC1)C2` [Compound 67], for which the IC50 stood at 1 nM in assay [1] and 39 nM in assay [2] (Homo sapiens, MIA PaCa-2, 2 h).

With `C#Cc1ccc2c(c1)[C@@H](N)C1(CCN(c3cc(=O)n(-c4cc(F)cc(F)c4)c(C)n3)CC1)C2` [Compound 55], the IC50 was 26 nM in assay [1] and 388 nM in assay [2] (Homo sapiens, MIA PaCa-2, 2 h).

In the case of `CC#Cc1ccc2c(c1)[C@@H](N)C1(CCN(c3cc(=O)n(-c4ccc(F)c(OC)c4Cl)c(C)n3)CC1)C2` (atropisomer, axis not shown) [Compound 208], the IC50 in assay [1] amounted to 58 nM; in assay [2] (2 hours), 187 nM.

Take `C#Cc1ccc2c(c1)[C@@H](N)C1(CCN(c3cc(=O)n(-c4c(F)cccc4Cl)c(C)n3)CC1)C2` [Compound 68]: the IC50 in assay [1] worked out at 130 nM; in assay [2] (Homo sapiens, MIA PaCa-2, 2 h) it was 510 nM.

For `Cc1nc(N2CCC3(CC2)Cc2ccc(C#C[C@@H](C)O)cc2[C@H]3N)cc(=O)n1-c1cccc(Cl)c1Cl` [Compound 37], the IC50 in assay [1] was found to be 44 nM; in assay [2] (Homo sapiens, MIA PaCa-2, 2 h) it was 599 nM.

As to `C#Cc1ccc2c(c1)[C@@H](N)C1(CCN(c3cc(=O)n(-c4ccc(F)c(Cl)c4Cl)c(C)n3)CC1)C2` (atropisomer, axis not shown) [Compound 109], the IC50 in assay [1] was 118 nM; in assay [2] (2 hours) it was 259 nM.

In the case of `C#Cc1ccc2c(c1)CC1(CCN(c3ncc(Sc4ccnc(NC5CCC5)c4Cl)c4nccn34)CC1)[C@@H]2N` [Compound 10], the IC50 is 35 nM in assay [1] and 220 nM in assay [2] (Homo sapiens, MIA PaCa-2, 2 h).

With `C#Cc1ccc2c(c1)[C@@H](N)C1(CCN(c3cc(=O)n(-c4cccc(OC)c4Cl)c(C)n3)CC1)C2` (atropisomer, axis not shown) [Compound 110], the IC50 was determined as 249 nM in assay [1] and 959 nM in assay [2] (2 hours).

`CC#Cc1ccc2c(c1)[C@@H](N)C1(CCN(c3cc(=O)n(-c4cccc(Cl)c4Cl)c(C)n3)CC1)C2` [Compound 79]: the IC50 in assay [1] came to 1 nM; in assay [2] (Homo sapiens, MIA PaCa-2, 2 h) it was 60 nM.

In the case of `NC(=O)C#Cc1ccc2c(c1)[C@@H](N)C1(CCN(c3ncc(Sc4ccnc(N)n4)nc3CO)CC1)C2` [Compound 122], the IC50 in assay [1] came to 0.6 nM; in assay [2] (Homo sapiens, MIA PaCa-2, 2 h), 7 nM.

In the case of `C#Cc1ccc2c(c1)[C@@H](N)C1(CCN(c3cc(=O)n(-c4cc(OC)ccc4Cl)c(C)n3)CC1)C2` [Compound 44], the IC50 in assay [1] amounted to 60 nM; in assay [2] (Homo sapiens, MIA PaCa-2, 2 h), 415 nM.

Turning to `C#Cc1ccc2c(c1)[C@@H](N)C1(CCN(c3cc(=O)n(-c4ccc(F)c(F)c4Cl)c(C)n3)CC1)C2` (atropisomer, axis not shown) [Compound 114], the IC50 in assay [1] amounted to 53 nM; in assay [2] (2 hours), 284 nM.

With `COCCSc1ccc2c(c1)[C@@H](N)C1(CCN(c3cc(=O)n(-c4ccc(F)c(OC)c4F)c(C)n3)CC1)C2` [Compound 101], the IC50 is 12 nM in assay [1] and 96 nM in assay [2] (Homo sapiens, MIA PaCa-2, 2 h).

Turning to `COCC#Cc1ccc2c(c1)[C@@H](N)C1(CCN(c3cc(=O)n(-c4cccc(Cl)c4Cl)c(C)n3)CC1)C2` [Compound 30], the IC50 in assay [1] was 2 nM; in assay [2] (Homo sapiens, MIA PaCa-2, 2 h) it was 8 nM.

For the compound `CN(C)CC#Cc1ccc2c(c1)C(=O)C1(CCN(c3ncc(Sc4ccnc(N)c4Cl)c4nccn34)CC1)C2` [Compound 72], the IC50 in assay [1] is 978 nM; in assay [2] (Homo sapiens, MIA PaCa-2, 2 h), more than 1000 nM.

On to `COCCSc1ccc2c(c1)[C@@H](N)C1(CCN(c3ncc(Sc4ccnc(N)n4)c4nccn34)CC1)C2` [Compound 98], for which the IC50 is 3 nM in assay [1] and 20 nM in assay [2] (Homo sapiens, MIA PaCa-2, 2 h).

On to `C#Cc1ccc2c(c1)[C@@H](N)C1(CCN(c3cc(=O)n(-c4cccc(Cl)c4F)c(C)n3)CC1)C2` (atropisomer, axis not shown) [Compound 65], for which the IC50 was 2 nM in assay [1] and 60 nM in assay [2] (2 hours).

`C#Cc1ccc2c(c1)[C@@H](N)C1(CCN(c3cc(=O)n(-c4c(F)cccc4F)c(C)n3)CC1)C2` [Compound 35]: the IC50 is 17 nM in assay [1] and 274 nM in assay [2] (Homo sapiens, MIA PaCa-2, 2 h).

As to `C#Cc1ccc2c(c1)[C@@H](N)C1(CCN(c3nc(C)n(-c4ccc(F)cc4Cl)c(=O)c3C)CC1)C2` (atropisomer, axis not shown) [Compound 103], the IC50 in assay [1] came to 17 nM; in assay [2] (2 hours) it was 80 nM.

Take `Nc1nccc(Sc2cnc(N3CCC4(CC3)Cc3ccc(C#CCO)cc3[C@H]4N)n3ccnc23)c1Cl` [Compound 76]: the IC50 in assay [1] was determined as 2 nM; in assay [2] (Homo sapiens, MIA PaCa-2, 2 h), 4 nM.
